Laboratory results published in the supplement of paper PMC12463676, “Small-molecule dissolution of stress granules by redox modulation benefits ALS models” (Nature Chemical Biology, 2025).

Experiments:
lipoamide = compound: NC(=O)CCCCC1CCSS1 [lipoamide]; assay: thermal stability z-score vs DMSO; higher = more thermally stabilized by treatment; conditions: HeLa, lipoamide concentration 100 µM
Procedure: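 Cellular thermal proteome profiling in HeLa cells. Cells were treated with 100 µM lipoamide for 1 h, with or without 1 mM arsenate for a further 1 h, then heated to ten temperatures (37-66.3 °C), and soluble protein was quantified by TMT mass spectrometry relative to 0.1% DMSO controls. The thermal stability score (sum of log2 fold changes minus the abundance score) was transformed to a z-score; mean of n = 3 experiments.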

potassium arsenate = compound: O=[As]([O-])(O)O.[K+] [potassium arsenate]; assay: as above; conditions: HeLa; arsenate concentration 1 mM
Procedure: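 Cellular thermal proteome profiling in HeLa cells treated with 1 mM arsenate for 1 h (DMSO pretreatment), heated to ten temperatures (37-66.3 °C). Soluble protein was quantified by TMT mass spectrometry relative to DMSO controls; the thermal stability score was transformed to a z-score; mean of n = 3 experiments.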

[1] = arsenate co-treatment: 1 mM arsenate 1 h
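Note: each temperature applied for 3 min, abundance score taken as mean log2 fold change at the two lowest temperatures, z-score obtained by mean subtraction and division by SD.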

Sequence of UniProt O95340 (O95340 whole entry): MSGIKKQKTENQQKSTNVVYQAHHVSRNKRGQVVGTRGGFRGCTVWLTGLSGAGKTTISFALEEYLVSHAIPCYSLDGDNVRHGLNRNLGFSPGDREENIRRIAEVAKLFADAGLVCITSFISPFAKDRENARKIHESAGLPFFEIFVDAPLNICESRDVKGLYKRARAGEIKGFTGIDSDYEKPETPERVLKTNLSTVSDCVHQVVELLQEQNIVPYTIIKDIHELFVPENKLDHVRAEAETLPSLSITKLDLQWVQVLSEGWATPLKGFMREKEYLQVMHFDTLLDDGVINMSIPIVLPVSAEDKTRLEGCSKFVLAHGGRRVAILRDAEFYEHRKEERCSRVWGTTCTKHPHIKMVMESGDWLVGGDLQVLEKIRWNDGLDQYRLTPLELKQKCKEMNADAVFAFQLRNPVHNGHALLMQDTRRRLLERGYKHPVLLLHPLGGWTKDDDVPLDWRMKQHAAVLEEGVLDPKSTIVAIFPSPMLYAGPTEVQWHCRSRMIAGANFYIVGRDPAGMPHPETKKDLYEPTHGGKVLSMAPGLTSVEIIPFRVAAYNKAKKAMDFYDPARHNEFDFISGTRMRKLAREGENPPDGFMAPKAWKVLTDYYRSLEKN
Sequence of UniProt P55268 (P55268 whole entry): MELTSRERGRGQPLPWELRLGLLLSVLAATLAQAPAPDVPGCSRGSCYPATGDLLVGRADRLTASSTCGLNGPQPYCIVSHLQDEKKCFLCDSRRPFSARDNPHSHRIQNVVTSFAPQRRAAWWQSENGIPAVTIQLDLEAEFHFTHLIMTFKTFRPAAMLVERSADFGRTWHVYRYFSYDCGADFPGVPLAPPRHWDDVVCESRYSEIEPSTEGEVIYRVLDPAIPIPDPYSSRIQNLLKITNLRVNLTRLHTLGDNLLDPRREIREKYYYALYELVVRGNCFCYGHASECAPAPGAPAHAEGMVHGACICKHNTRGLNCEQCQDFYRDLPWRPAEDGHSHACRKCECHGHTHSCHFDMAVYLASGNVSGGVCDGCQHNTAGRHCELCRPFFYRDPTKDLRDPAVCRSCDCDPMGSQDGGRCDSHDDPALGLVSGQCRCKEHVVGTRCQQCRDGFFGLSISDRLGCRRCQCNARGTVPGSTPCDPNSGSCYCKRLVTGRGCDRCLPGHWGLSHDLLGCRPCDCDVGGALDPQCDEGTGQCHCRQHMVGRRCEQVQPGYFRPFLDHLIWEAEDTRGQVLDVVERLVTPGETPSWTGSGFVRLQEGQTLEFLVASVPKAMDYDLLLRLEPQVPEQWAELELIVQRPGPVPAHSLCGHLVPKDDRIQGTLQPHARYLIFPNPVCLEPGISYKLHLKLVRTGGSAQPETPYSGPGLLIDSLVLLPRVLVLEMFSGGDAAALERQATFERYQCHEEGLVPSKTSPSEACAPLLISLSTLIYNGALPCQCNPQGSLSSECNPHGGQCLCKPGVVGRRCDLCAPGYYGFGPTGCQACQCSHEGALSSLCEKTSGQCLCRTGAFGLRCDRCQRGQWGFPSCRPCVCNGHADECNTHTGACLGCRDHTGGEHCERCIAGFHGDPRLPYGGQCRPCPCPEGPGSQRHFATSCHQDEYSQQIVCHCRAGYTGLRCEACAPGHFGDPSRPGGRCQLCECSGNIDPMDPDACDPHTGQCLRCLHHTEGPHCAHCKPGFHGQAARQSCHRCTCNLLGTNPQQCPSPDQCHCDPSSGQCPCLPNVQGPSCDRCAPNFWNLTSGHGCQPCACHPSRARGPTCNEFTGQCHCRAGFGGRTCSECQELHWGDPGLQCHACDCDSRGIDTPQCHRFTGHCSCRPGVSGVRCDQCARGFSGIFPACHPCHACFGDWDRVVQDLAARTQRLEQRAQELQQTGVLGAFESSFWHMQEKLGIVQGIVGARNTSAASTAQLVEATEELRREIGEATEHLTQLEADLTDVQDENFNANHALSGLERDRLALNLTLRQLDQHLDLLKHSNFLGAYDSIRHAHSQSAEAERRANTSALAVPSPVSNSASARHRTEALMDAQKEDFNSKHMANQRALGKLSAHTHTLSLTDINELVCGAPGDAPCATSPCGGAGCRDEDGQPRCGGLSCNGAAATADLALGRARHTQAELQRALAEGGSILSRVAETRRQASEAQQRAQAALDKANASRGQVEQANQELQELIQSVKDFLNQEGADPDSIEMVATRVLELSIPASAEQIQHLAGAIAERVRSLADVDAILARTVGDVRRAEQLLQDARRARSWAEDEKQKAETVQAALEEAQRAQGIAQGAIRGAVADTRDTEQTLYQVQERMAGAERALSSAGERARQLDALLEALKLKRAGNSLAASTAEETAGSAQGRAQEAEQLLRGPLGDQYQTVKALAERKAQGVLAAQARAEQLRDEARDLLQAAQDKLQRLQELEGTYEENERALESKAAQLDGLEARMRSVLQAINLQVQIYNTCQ
Sequence of UniProt Q13442 (Q13442 whole entry): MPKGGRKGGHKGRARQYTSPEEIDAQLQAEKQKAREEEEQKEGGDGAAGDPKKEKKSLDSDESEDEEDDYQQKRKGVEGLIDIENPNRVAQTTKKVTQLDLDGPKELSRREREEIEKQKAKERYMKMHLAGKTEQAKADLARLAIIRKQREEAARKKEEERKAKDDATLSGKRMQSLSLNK
Sequence of UniProt Q92585 (Q92585 whole entry): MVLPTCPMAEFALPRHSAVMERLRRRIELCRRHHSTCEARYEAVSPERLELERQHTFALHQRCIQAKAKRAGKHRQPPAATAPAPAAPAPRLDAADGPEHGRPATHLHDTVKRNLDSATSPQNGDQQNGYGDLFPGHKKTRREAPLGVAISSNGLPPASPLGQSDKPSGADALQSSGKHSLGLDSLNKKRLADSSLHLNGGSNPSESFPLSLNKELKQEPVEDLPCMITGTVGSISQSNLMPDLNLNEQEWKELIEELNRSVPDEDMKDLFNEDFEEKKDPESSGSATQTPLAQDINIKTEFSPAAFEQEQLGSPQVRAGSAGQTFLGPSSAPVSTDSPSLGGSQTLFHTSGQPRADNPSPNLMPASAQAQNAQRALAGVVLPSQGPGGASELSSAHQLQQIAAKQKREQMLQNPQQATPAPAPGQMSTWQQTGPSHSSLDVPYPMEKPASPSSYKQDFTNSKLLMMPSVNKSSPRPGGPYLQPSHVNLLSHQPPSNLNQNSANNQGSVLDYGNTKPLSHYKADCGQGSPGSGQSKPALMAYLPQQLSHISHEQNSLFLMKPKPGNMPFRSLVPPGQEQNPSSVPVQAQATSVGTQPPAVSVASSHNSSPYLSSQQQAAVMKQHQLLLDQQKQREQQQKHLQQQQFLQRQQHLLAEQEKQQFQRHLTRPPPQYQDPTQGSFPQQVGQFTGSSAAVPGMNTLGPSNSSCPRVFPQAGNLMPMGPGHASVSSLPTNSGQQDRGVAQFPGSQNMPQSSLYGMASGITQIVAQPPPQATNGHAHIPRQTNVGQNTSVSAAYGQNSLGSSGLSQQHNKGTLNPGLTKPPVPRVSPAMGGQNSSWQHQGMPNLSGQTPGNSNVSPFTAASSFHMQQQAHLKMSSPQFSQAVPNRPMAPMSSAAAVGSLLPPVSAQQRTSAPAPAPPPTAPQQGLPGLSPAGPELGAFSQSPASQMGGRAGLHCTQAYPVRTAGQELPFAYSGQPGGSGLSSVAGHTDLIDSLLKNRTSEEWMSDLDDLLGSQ
Sequence of UniProt P11279 (P11279 whole entry): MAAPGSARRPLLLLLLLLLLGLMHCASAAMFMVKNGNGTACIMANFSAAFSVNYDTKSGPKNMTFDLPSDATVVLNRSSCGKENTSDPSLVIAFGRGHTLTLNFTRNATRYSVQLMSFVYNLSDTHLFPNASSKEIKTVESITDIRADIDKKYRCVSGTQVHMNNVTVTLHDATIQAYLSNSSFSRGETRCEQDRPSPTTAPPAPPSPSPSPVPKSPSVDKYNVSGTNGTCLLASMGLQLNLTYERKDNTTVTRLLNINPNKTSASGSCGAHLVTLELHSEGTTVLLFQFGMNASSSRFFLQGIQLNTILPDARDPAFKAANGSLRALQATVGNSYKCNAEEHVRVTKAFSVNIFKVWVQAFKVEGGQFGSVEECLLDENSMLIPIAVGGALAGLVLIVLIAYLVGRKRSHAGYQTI
Sequence of UniProt P61201 (P61201 whole entry): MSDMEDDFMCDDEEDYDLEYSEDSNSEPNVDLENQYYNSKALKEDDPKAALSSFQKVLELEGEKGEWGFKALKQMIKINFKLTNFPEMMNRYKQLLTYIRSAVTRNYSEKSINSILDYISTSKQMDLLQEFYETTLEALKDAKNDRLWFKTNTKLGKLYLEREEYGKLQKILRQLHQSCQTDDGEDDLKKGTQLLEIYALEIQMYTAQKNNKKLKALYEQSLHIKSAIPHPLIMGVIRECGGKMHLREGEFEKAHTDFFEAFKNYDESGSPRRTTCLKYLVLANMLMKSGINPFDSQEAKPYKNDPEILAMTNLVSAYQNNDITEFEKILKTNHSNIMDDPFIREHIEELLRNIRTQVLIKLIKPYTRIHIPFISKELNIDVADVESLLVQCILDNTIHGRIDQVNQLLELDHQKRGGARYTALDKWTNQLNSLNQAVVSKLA
Sequence of UniProt P15291 (P15291 whole entry): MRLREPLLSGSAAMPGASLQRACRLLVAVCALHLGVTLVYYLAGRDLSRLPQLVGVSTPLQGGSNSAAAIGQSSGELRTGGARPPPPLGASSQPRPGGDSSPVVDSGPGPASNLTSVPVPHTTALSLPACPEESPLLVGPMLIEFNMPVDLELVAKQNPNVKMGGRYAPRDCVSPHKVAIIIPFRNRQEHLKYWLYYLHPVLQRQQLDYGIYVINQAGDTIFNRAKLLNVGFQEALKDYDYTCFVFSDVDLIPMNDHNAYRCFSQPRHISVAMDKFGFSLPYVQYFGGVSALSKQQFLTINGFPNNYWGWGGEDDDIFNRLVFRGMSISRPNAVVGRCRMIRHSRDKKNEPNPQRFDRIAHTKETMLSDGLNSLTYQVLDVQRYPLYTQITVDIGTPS

| Target | thermal stability z-score (lipoamide; [1]) | thermal stability z-score (lipoamide; arsenate co-treatment: none) | thermal stability z-score (potassium arsenate) |
| --- | --- | --- | --- |
| H1F0 (UniProt P07305) | 0.135 | -0.22 | -0.062 |
| LAMP1 (UniProt P11279) | 0.396 | 0.531 | -0.0209 |
| KIFC1 (UniProt Q9BW19) | 0.126 | 0.0537 | -0.106 |
| SURF6 (UniProt O75683) | -0.283 | -1.48 | -2.85 |
| COPS2 (UniProt P61201) | 0.538 | -0.0451 | 0.0289 |
| KIF4A (UniProt O95239) | -0.0934 | 0.023 | -0.219 |
| RAPGEF2 (UniProt Q9Y4G8) | 0.309 | -0.293 | -0.388 |
| TRAF3IP1 (UniProt Q8TDR0) | 0.519 | 0.373 | 0.694 |
| GLS (UniProt O94925) | -0.371 | -0.00934 | 0.351 |
| LAMB2 (UniProt P55268) | -1.69 | -1.75 | -0.248 |
| RNF167 (UniProt Q9H6Y7) | -0.267 | -0.216 | 0.669 |
| PSMD3 (UniProt O43242) | 0.084 | 0.0492 | 0.115 |
| DOPEY2 (UniProt Q9Y3R5) | 1.01 | 0.402 | -0.9 |
| STIP1 (UniProt P31948) | 0.275 | 0.371 | -0.157 |
| BYSL (UniProt Q13895) | -0.197 | 0.349 | 0.424 |
| MVD (UniProt P53602) | 0.0441 | -0.0153 | -0.0067 |
| TYW5 (UniProt A2RUC4) | 0.502 | 0.336 | 0.66 |
| ARV1 (UniProt Q9H2C2) | 0.292 | 0.473 | -0.894 |

| Target | thermal stability z-score (lipoamide; [1]) | thermal stability z-score (lipoamide; arsenate co-treatment: none) | thermal stability z-score (potassium arsenate) |
| --- | --- | --- | --- |
| MRAS (UniProt O14807) | 0.488 | -0.67 | 0.0682 |
| MAML1 (UniProt Q92585) | 0.141 | 0.017 | 1.03 |
| DICER1 (UniProt Q9UPY3) | 0.656 | 0.00487 | -0.398 |
| DUT (UniProt P33316) | -0.171 | 0.377 | -0.727 |
| GCC2 (UniProt Q8IWJ2) | -0.88 | -0.098 | 0.827 |
| URGCP (UniProt Q8TCY9) | 0.532 | 0.322 | 1.12 |
| NARFL (UniProt Q9H6Q4) | 0.327 | 0.0715 | -0.0417 |
| B4GALT1 (UniProt P15291) | -0.454 | -0.565 | 0.0478 |
| MRPS18A (UniProt Q9NVS2) | -0.573 | -0.402 | 0.196 |
| LEO1 (UniProt Q8WVC0) | 1.13 | 0.765 | 0.239 |
| PAPSS2 (UniProt O95340) | -0.146 | -0.156 | 1.57 |
| NOC4L (UniProt Q9BVI4) | 0.134 | 0.00403 | 0.214 |
| TLDC1 (UniProt Q6P9B6) | -0.455 | -0.204 | -0.238 |
| PAICS (UniProt P22234) | 0.653 | 0.549 | -0.0525 |
| TOR1AIP2 | -3.46 | -2.77 | -0.134 |
| RRAS (UniProt P10301) | 0.632 | 0.351 | 0.844 |
| NCK1 (UniProt P16333) | -0.705 | -0.905 | -0.0139 |
| PDAP1 (UniProt Q13442) | 0.179 | 0.298 | -0.0329 |
